In one series the target is T1, cyclooxygenase 1 (COX1) (Homo sapiens, UniProt P23219).
T1 construct: Eurofins Cerep SA (CRO)
The experiment in a line: SafetyScreen44: COX1. The class given is biochemical. The source says:
(§1) Moreover, we explored the safety profile of frontrunner (R)‐30 in more detail in order to detect additional crucial off‐target interactions. For this purpose, we employed the SafetyScreen44 in vitro panel comprising selected binding, inhibition and uptake assays.^[ [35] ^] The panel is a specialized pharmacological profiling tool that tests compounds against 44 key molecular targets, aiming to identify potential safety risks early in drug discovery. […]
(§2) The off-target Safety Screen44TM was performed by the CRO Eurofins Cerep SA (Celle-
(§3) L'Evescault, France) according to their protocols.[13] […]
(§4) MMP-1 MMP-2 MMP-3 TACE (ADAM17)
(§5) Compound [% inhibition at [% inhibition at [% inhibition at [% inhibition at 100

The target of a further series is T2, hERG potassium channel (Homo sapiens, UniProt Q12809).
T2 construct: Eurofins Cerep SA (CRO)
The experiment in a line: SafetyScreen44: hERG binding.
From the text: as §1, §2, §3, §4, §5

The target of another series is T3, LasB (Pseudomonas aeruginosa, UniProt Q02RJ6).
T3 construct: made in house
Kind of series: KC/LasB co-incubation study (ELISA). To be noted: 100 µM (R)-30, 100 nM LasB, 10 min. It is filed as biochemical. The procedure: Figure S15: MS-based quantification of (R)-30 levels in serum and eye homogenate. Concentrations were determined after single treatment ((R)-30 alone) or after combination with Meropenem.
To test whether KC might be a substrate for LasB, an ELISA was used to quantify KC levels after co-incubation with LasB. Briefly, 500 pg/ml of the recombinant murine KC standard (R&D part 840327) was incubated for 10 minutes in PBS supplemented with 1% BSA and 0.1% DMSO (vehicle control), LasB (100 nM), (R)-30 (100 µM), or a combination of both. Detection of KC and absorbance measurements were performed as described above (3.11).
(also on this page, place not known: Serum Eye homogenate 100 1000 concentrations Concentration [ng/mL] Meropenem + (R)-30 (R)-30 , 10 LasB (R)-30)
(1 picture or pasted object on this page, not shown here)

Series [1] in a line: Tolerability study in male CD1 mice, repeated TID intravenous dosing. The class given is in vivo. As to conditions: mouse, 300 and 600 mg/kg/day, 3 days. The procedure:
Table S8: Percent (%) inhibition of the metabolic activity of three human cell lines HepG2 (hepatocellular carcinoma cells), HEK293 (human embryonic kidney 293 cells) and A549 (lung carcinoma epithelial cells). Results are means and SD of at least two independent ex periments.
3.10 Evaluation of Zebrafish embryo toxicity
The experiment was performed according to a procedure described in the literature with minor modifications using zebrafish embryos of the AB wild -type line at 1 day post fertilization (dpf). A detailed protocol has been given in our recent publication.[16]
Starting exposure ar 2 dpf. Ten larvae were tested for each condition. Dpf: days post fertilization.
3.11 Tolerability study in male CD1 mice
This in vivo experiment was carried out at the CRO Selvita (Zagreb, Croatia). The study was performed in an AAALAC I- approved Facility. The standard study plan relating to this study was reviewed by the Ethics Committee (CARE- Zagreb) as required by International Laws/Regulations and Croatian Low on Animal Welfare (“The Animal Protection Act”, Official Gazette, NN 135/06 and NN 37/13) and Animal Welfare Officer. Animals were kept in solid […]
The observations and examinations that were made, comprise clinical signs, body weight, food consumption, macroscopy at termination and organ weights. Mortality was recorded twice a day, i.e. in the morning and at the end of the working day.

The target in series [2] is T4, 5‐hydroxytryptamin transporter (5‐HTT) (Homo sapiens, UniProt P31645).
T4 construct: Eurofins Cerep SA (CRO)
Kind of series: SafetyScreen44: 5-HTT binding.
From the text: as §1, §2, §3, §4, §5

The nature of series [3]: Plasma stability, Göttingen minipig. To be noted: read-out: Minipig Plasma t1/2. The class given is in vitro ADME. The procedure: To determine stability in plasma, the compound (1 µM) was incubated with pooled CD -1 […]
mouse/human/Wistar rat or Göttingen minipig plasma (Neo Biotech, Nanterre, France).
Samples were taken by mixing aliquots with 4 volumes of acetonitrile containing internal […]
standard (125 nM diphenhydramine). The plasma stability of procain, propantheline and diltiazem were determined in parallel to confirm the enzymatic activity. Samples were stored […]
on ice until the end of the incubation and precipitated protein was removed by centrifugation […]
(15 min, 4 °C, 4,000 g, two centrifugation steps). Concentration of the remaining test compound at the different time points was analyzed by HPLC-MS/MS (TSQ Quantum Access MAX, […]
Thermo Fisher, Dreieich, Germany) and used to determine half-life (t1/2).
Table S2: Additional in vitro ADMET data for selected dipeptides. n.d.: not determined.
Kinetic Liver S9 Clint [µL/mg/min] Plasma t1/2 [min] LogD7.4 […]
pH 7.4 [µM] Mouse Human Mouse Human

One may read the inhibition as the relative decrease from the control value, in per cent.

Each structure is given as a SMILES string.

T1 sequence (P23219 24-599): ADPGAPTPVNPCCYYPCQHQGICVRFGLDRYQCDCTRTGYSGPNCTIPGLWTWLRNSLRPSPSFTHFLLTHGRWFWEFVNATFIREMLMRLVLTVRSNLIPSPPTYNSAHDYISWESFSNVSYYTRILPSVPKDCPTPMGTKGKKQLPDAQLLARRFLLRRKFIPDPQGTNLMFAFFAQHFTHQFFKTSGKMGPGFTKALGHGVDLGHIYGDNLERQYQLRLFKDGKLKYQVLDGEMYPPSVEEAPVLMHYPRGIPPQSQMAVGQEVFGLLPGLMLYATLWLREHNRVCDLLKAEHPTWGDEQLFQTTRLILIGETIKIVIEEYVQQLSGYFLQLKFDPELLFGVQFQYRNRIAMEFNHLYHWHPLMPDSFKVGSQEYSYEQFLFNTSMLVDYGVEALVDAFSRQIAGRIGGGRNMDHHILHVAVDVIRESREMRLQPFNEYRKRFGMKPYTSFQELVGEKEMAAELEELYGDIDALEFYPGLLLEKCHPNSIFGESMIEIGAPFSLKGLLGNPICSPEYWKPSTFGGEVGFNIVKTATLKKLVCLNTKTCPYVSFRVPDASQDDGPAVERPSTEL
T2 sequence (Q12809 whole entry): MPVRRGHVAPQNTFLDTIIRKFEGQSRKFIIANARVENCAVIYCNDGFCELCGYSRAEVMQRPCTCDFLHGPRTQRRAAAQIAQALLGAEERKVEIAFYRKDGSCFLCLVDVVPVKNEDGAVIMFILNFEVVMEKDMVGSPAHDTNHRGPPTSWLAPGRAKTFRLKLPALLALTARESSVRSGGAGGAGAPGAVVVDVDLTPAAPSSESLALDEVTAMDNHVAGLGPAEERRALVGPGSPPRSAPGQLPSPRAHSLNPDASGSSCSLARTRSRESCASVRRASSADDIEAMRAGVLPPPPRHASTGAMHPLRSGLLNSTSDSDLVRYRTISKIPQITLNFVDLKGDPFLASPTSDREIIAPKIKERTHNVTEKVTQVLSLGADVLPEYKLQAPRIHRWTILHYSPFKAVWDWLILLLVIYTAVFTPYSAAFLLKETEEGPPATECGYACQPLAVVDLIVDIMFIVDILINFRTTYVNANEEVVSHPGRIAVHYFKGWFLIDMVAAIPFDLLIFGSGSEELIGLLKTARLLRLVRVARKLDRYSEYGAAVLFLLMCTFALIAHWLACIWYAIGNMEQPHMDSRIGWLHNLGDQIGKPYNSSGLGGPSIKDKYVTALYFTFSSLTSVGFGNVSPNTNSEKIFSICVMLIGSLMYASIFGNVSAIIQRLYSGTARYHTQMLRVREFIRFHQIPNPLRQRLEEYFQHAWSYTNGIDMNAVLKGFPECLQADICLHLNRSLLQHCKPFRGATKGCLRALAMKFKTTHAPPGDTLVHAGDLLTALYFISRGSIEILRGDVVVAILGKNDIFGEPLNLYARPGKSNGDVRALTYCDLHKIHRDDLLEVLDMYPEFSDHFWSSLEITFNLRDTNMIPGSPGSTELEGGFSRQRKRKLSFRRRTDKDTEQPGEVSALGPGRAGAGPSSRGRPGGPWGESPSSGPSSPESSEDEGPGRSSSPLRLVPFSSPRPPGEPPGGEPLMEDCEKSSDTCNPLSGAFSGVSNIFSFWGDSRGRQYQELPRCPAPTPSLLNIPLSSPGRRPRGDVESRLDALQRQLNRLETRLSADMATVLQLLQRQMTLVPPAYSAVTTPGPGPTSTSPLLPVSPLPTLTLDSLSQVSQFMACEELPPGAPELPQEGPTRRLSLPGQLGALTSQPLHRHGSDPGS
T3 sequence (Q02RJ6 198-498): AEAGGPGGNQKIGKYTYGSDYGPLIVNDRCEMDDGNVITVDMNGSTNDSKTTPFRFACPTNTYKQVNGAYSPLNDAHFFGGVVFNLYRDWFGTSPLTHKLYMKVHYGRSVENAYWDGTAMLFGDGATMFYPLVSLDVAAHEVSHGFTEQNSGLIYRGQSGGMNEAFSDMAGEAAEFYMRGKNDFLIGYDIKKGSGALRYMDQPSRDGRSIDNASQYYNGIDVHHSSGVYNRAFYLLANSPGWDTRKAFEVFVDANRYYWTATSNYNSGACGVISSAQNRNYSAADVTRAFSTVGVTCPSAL
T4 sequence (P31645 whole entry): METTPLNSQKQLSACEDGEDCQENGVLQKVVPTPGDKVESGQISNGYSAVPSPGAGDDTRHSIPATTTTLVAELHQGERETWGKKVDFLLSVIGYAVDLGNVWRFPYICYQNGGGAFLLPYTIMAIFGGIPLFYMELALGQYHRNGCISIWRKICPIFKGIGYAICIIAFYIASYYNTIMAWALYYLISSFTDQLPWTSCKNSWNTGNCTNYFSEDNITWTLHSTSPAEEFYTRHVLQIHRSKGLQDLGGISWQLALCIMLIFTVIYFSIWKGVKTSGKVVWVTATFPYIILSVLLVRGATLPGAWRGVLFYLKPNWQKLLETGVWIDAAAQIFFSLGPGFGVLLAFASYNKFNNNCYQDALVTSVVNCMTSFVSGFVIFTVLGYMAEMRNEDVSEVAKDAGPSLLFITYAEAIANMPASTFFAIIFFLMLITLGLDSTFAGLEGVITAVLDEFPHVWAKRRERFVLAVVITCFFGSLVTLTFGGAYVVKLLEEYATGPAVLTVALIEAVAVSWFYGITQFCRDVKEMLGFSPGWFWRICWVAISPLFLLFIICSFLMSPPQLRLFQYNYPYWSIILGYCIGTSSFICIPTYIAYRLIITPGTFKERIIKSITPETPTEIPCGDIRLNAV

As for `CC(=O)c1ccc(NC(=O)[C@@H](NC(=O)[C@@H](CC(C)C)P(=O)(O)O)C(C)C)cc1` [(R)‐30], the inhibition at 100 µM against cyclooxygenase 1 (COX1) was 81.5%; on hERG potassium channel, 79.4%; in series [2], 84.8%. Also, the “proteolytic activity of LasB on KC” value on LasB is listed as “effectively blocked”. Moreover, the “mortality, body weight, clinical signs” value in series [1] is “no treatment–related mortality, nor effects on body weight or clinical signs”.
On to `CC(=O)c1ccc(NC(=O)[C@@H](NC(=O)C(CC(C)C)P(=O)(O)O)C(C)C)cc1` (stereo partly drawn) [compound 30], for which, in series [3], the half-life at 1 µM is > 4 h.
